Laboratory results as given in US5376679A, “Bicyclic or tricyclic biocidal compounds” (Shell Internationale Research Maatschappij B.V., priority 1988, dated 1994).
Converted amounts (≈) assume the structure as drawn.

Experiments:
Plasmopara viticola = assay: Direct protectant activity against vine downy mildew (Pvp); type: in vivo; set-up: Pvp: direct protectant activity against vine downy mildew: scale not given here; conditions: for Pvp: direct protectant activity against vine downy mildew: foliar spray, 1 kg/ha, activity grade 1 or 2, not defined
Text: (a) Direct Protectant Activity Against Vine Downy Mildew (Plasmopara viticola; Pvp)
The test is a direct protectant one, using a foliar spray. The lower surfaces of leaves of whole vine plants (cv Cabernet Sauvignon) are sprayed with a solution of active material in 1:1 v/v water/acetone containing 0.04% w "Triton X-155" (trade mark) (octylphenol polyoxyethylene surfactant), at a dosage of 1 kilogram of active material per hectare using a track sprayer which delivers 620 liters/ha, and after a subsequent 24 hours under normal glasshouse conditions the lower surfaces of the leaves are inoculated by spraying with an aqueous solution containing 10^4 zoosporangia/ml. The inoculated plants are kept for 24 hours in a high humidity compartment, 5 days under normal glasshouse conditions and then returned for a further 24 hours to high humidity. Assessment is based on the percentage of leaf area covered by sporulation compared with that on control leaves.

Saccharomyces cerevisiae = assay: Minimum inhibitory concentration, yeast (Sc); type: cell-based, Saccharomyces cerevisiae (ATCC 9763); conditions: 30° C., 24 and 72 hours
Protocol: Inocula of S. cerevisiae were prepared as for S. aureus, B. subtilis and E. coli, but using yeast malt broth in place of the typtone soya broth. The yeast malt broth was prepared by suspending 3 g yeast extract, 3 g malt extract, 5 g peptone and 10 g dextrose in 1 liter of distilled water, warming to achieve solution and sterilising by autoclaving at 121° C. for 15 minutes.
(§1) Test procedures were as follows:
(§2) (ii) Dilution Series for Other Test Bacteria, Yeast and Filamentous Fungi
(§3) Dilution series from the stock solution of each compound were prepared in sterile distilled water. These contained 50, 100, 500 and 1000 ppm compound. To duplicate wells of a compartmentalised square petri dish 0.3 ml of each test compound concentration was added together with 2.7 ml of one of the microbial inocula described above. This gave final concentrations of the test compound of 5, 10, 50 and 100 ppm.
(§4) After incubation, in the dark, at 30° C. the wells were examined for the presence or absence of growth. Bacterial and yeast cultures were examined after 24 hours and 72 hours incubation and the fungi cultures after 3, 7 and 10 days.
(§5) By means of the above tests minimum inhibitory concentrations were determined for the various test compounds.

Staphylococcus aureus = assay: Minimum inhibitory concentration, Staphylococcus aureus (Sa); type: cell-based, Staphylococcus aureus (NCIB 6571); conditions: 30° C., 24 and 72 hours
Protocol: (§6) In respect of S. aureus, B. subtilis and E. coli, the microorganisms were cultured in 50 ml aliquots of a tryptone soya broth in 250 ml conical flasks at 30° C. on a rotary shaker at 200 rpm for 24 hours. Tryptone soya broth was prepared by adding 17 g pancreatic digest of casein, 3 g […] digest of soyabean meal, 5 g of sodium chloride, 2.5 g of dipotassium hydrogen phosphate and 2.5 g of dextrose to 1 liter of distilled water, mixing and sterilising by autoclaving at 121° C. for 15 minutes. 1 ml aliquots of the resulting cultures were mixed with 99 ml of fresh tryptone soya broth and used as inocula for tests. […] Test procedures were as follows: (ii) Dilution Series for Other Test Bacteria, Yeast and Filamentous Fungi Dilution series from the stock solution of each compound were prepared in sterile distilled water. These contained 50, 100, 500 and 1000 ppm compound. To duplicate wells of a compartmentalised square petri dish 0.3 ml of each test compound concentration was added together with 2.7 ml of one of the microbial inocula described above. […] After incubation, in the dark, at 30° C. the wells were examined for the presence or absence of growth. Bacterial and yeast cultures were examined after 24 hours and 72 hours incubation and the fungi cultures after 3, 7 and 10 days. By means of the above tests minimum inhibitory concentrations were determined for the various test compounds.

Bacillus subtilis = assay: Minimum inhibitory concentration, Bacillus subtilis (Bs); type: cell-based; conditions: 30° C., 24 and 72 hours
Protocol: as §6

Desulfovibrio sp. = assay: Minimum inhibitory concentration, sulphate-reducing bacteria (Dsp); type: cell-based; conditions: 30° C., 2, 5 and 10 days
Protocol: The sulphate reducing bacteria Desulfovibrio sp. were cultured in a modified Postgate's Medium B for 48 hours at 30° C. and used directly as an inoculum. The modified Postgate's Medium B consisted of 0.5 g dipotassium hydrogen phosphate, 1 g ammonium chloride, 1 g sodium sulphate, 5 g sodium lactate, 1 g yeast extract, 0.1 ml thioglycolic acid, 0.1 ml ascorbic acid, 0.5 g ferrous sulphate heptahydrate, 750 ml aged seawater and 250 ml distilled water, pH adjusted to 7.8, divided into aliquots and sterilised by autoclaving at 121° C. for 15 minutes. […] Test procedures were as follows: (i) Suphate-reducing Bacteria Test Dilution Series Duplicate aliquots (9.9 ml) of dilution series from the stock solutions of each compound were prepared in a modified Postgate's Medium B described above. These contained 100 ppm compound. These were then inoculated with 0.1 ml of inoculum. After incubation at 30° C., the presence or absence of growth--as indicated by a blackening of the medium due to ferrous sulphide production--was recorded at 2, 5 and 10 days. […] By means of the above tests minimum inhibitory concentrations were determined for the various test compounds.

Aspergillus niger = assay: Minimum inhibitory concentration, Aspergillus niger (An); type: cell-based, Aspergillus niger (CMI 17454); conditions: 30° C., 3, 7 and 10 days
Protocol: (§7) Inocula of the fungi Aspergillus niger, Cladosporium resinae and Chaetomium globosum were prepared containing 5×10^5 conidia/ml in a potato dextrose broth. The potato dextrose broth was prepared by suspending 4 g potato extract and 20 g dextrose in 1 liter of distilled water, warming to achieve solution, separating into aliquots and sterilising by autoclaving at 121° C. for 15 minutes.
as §1, §2, §3, §4, §5

Chaetomium globosum = assay: Minimum inhibitory concentration, Chaetomium globosum (Chg); type: cell-based
Protocol: as §7, §1, §2, §3, §4, §5

Cladosporium resinae = assay: Minimum inhibitory concentration, Cladosporium resinae (Cr); type: cell-based; conditions: Amorphotheca resinae, 30° C., 3, 7 and 10 days
Protocol: as §7, §1, §2, §3, §4, §5

Escherichia coli = assay: Minimum inhibitory concentration, Escherichia coli (Ec); type: cell-based, Escherichia coli (NCIB 9517); conditions: 30° C., 24 and 72 hours
Protocol: as §6

[1] = system: Erysiphe graminis f.sp. hordei; assay: Direct antisporulant activity against barley powdery mildew (Eg); type: in vivo; set-up: scale not given here; conditions: foliar spray, 1 kg/ha; activity grade 1 or 2, not defined
Text: (f) Activity Against Barley Powdery Mildew (Erysiphe graminis f.sp. hordei; Eg) The test is a direct antisporulant one, using a foliar spray. Leaves of barley seedlings, cultivar Golden Promise, are inoculated by dusting with mildew conidia one day prior to treatment with the test compound. The inoculated plants are kept overnight at glasshouse ambient temperature and humidity prior to treatment. […] After drying, plants are returned to a compartment at ambient temperature and humidity for up to 7 days, followed by assessment. Assessment is based on the percentage of leaf area covered by sporulation compared with that on leaves of control plants.

Leptosphaeria nodorum = assay: Direct antisporulant activity against wheat leafspot (Ln); type: in vivo; set-up: scale not given here; conditions: foliar spray, 1 kg/ha; activity grade 1 or 2, not defined
Protocol: (e) Activity Against Wheat Leafspot (Leptosphaeria nodorum; Ln) The test is a direct antisporulant one, using a foliar spray. Leaves of wheat plants ([…]), at the single leaf stage, are inoculated by spraying with an aqueous suspension containing 8×10^5 spores/mi. The inoculated plants are kept for 24 hours in a high humidity compartment prior to treatment. […] After drying, the plants are kept for 5 days under normal glasshouse conditions, followed by assessment. Assessment is based on the percentage of leaf area covered by sporulation compared with that on leaves of control plants.

Fusarium culmorum = assay: Activity against seedling wheat blight, soil drench (Fs); type: in vivo; set-up: scale not given here; conditions: 10 kg/ha, 21 days, activity grade 1 or 2, not defined
Protocol: (d) Activity Against Seedling Wheat Blight (Fusarium culmorum; Fs)
The test is an anti-sporulant one using a soil drench. Surface sterilised wheat seeds (var Waggoner) are inoculated by soaking in an aqueous suspension containing 7×10^5 spores/ml (60 mg seed per 80 ml suspension) at 22° C. for 6 hours. The seeds are then sown in pots (5 per pot) in sand at a depth of 1 cm. 1 day after inoculation and planting the active material is applied at a rate of 10 kg/ha by pouring on a soil drench (concentration 0.36 g/l active material in 12% v/v acetone/water) evenly over the sand. The pots are then transferred to a glasshouse, kept at 25° C. and watered sparingly. 21 days after inoculation the resulting seedlings are removed from the pots and their roots are gently washed. Visual assessment is made based on lesion development on stem base and upper roots in comparison with control seedlings.

[2] = system: Pseudocercosporella herpotrichoides; assay: In vitro activity against wheat eyespot (Ph); type: cell-based; set-up: Ph: activity against wheat eyespot: scale not given here; conditions: in vitro, 100 ppm in agar, 11 days; activity grade 1 or 2, not defined
Protocol: (c) Activity Against Wheat Eyespot (Pseudocercosporella herpotrichoides; Ph)
The test is an in vitro one. Samples are prepared wherein 0.7 mls solution containing 2 mg active material dissolved in acetone is evenly dispersed in 20 ml molten half-strength potato dextrose agar (formed by dissolving 2 g potato extract, 10 g dextrose and 7.5 g agar in 1 liter of water and sterilising for 15 minutes and 121° C.) and the resulting 20 ml portions are allowed to set in 9 cm petri dishes. The concentration of active material in the resulting samples is 100 ppm. Upon setting, two plugs of 5 mm diameter taken from the advancing edge of a stock plate of a 3 to 4 week old culture of P.herpotrichoides on full strength potato dextrose agar, incubated at 20°-22° C. in darkness, are placed, equally spaced on the surface of each sample, mycelial side uppermost. The samples are incubated for 11 days at 20°-22° C. in darkness before assessment. Diametric growth is measured with the width of the plug subtracted and results compared with growth on a sample wherein 0.7 ml acetone containing no active material is dispersed in 20 ml half-strength potato agar.

SMILES	Pvp: direct protectant activity against vine downy mildew (Plasmopara viticola)	MIC (Saccharomyces cerevisiae)	MIC (Staphylococcus aureus)	MIC (Bacillus subtilis)	MIC (Desulfovibrio sp.)	MIC (Aspergillus niger)	MIC (Chaetomium globosum; 30° C., 3, 7 and 10 days)	MIC (Cladosporium resinae)	MIC (Escherichia coli)	Eg: activity against barley powdery mildew [1]	Ln: activity against wheat leafspot (Leptosphaeria nodorum)	MIC (Chaetomium globosum; *only tested at 100 ppm)	Fs: activity against seedling wheat blight (Fusarium culmorum)	Ph: activity against wheat eyespot [2]	activity against Pvp (Plasmopara viticola; secondary screening)
COC(=O)N=Nc1cc(C)cc2c1OC(C)(C)C2 [Example 32]	1														
N#CN=[N+]([O-])c1cccc2c1OC(CCl)C2 (stereo not drawn) [Example 13]		100 µg/mL (≈ 421 µM)	100 µg/mL (≈ 421 µM)	100 µg/mL (≈ 421 µM)	> 100 µg/mL	10 µg/mL (≈ 42.1 µM)	25 µg/mL (≈ 105 µM)	100 µg/mL (≈ 421 µM)	100 µg/mL (≈ 421 µM)						
CCC1Cc2cccc([N+]([O-])=NC#N)c2O1 (stereo not drawn) [Example 8]		100 µg/mL (≈ 460 µM)	> 100 µg/mL	> 100 µg/mL	> 100 µg/mL	10 µg/mL (≈ 46 µM)		10 µg/mL (≈ 46 µM)	> 100 µg/mL	1	1	< 100 µg/mL	2	2	
N#CN=[N+]([O-])c1ccc2c(c1)C=CCO2 [Example 28]		25 µg/mL (≈ 124 µM)	> 100 µg/mL	50 to 100 µg/mL (≈ 249 to 497 µM)	100 µg/mL (≈ 497 µM)	10 to 25 µg/mL (≈ 49.7 to 124 µM)	25 µg/mL (≈ 124 µM)	25 to 50 µg/mL (≈ 124 to 249 µM)	> 100 µg/mL						
Cc1ccc(N=NC#N)c2c1CC(C)(C)O2 [Example 38]	2														high activity
CCOC(=O)N=Nc1cc(C)c(Cl)c2c1OC(C)CC2 (stereo not drawn) [Example 42]										2					
N#CN=[N+]([O-])c1cccc2c1OC(CO)C2 (stereo not drawn) [Example 12]		> 100 µg/mL	> 100 µg/mL	50 µg/mL (≈ 228 µM)	50 µg/mL (≈ 228 µM)	> 100 µg/mL	100 µg/mL (≈ 456 µM)	100 µg/mL (≈ 456 µM)	100 µg/mL (≈ 456 µM)						
CC1CCc2cccc([N+]([O-])=NC#N)c2O1 (stereo not drawn) [Example 14]		50 µg/mL (≈ 230 µM)	> 100 µg/mL	> 100 µg/mL	100 µg/mL (≈ 460 µM)	10 µg/mL (≈ 46 µM)	< 5 µg/mL	25 µg/mL (≈ 115 µM)	> 100 µg/mL					2	
COC(=O)N=[N+]([O-])c1cc(C)cc2c1OC(C)(C)C2 [Example 44]	1									2					
CC1(C)CCc2cc(Cl)cc([N+]([O-])=NC#N)c2O1 [Example 15]		50 µg/mL (≈ 188 µM)	> 100 µg/mL	100 µg/mL (≈ 376 µM)	> 100 µg/mL	10 µg/mL (≈ 37.6 µM)	> 100 µg/mL	> 100 µg/mL	> 100 µg/mL				2	2	
C#CCOC(=O)N=Nc1ccc(C)c2c1OC(C)CC2 (stereo not drawn) [Example 39]										1	1				
CC1(C)C=Cc2cccc([N+]([O-])=NC#N)c2O1 [Example 27]		> 100 µg/mL	> 100 µg/mL	> 100 µg/mL	100 µg/mL (≈ 436 µM)	100 µg/mL (≈ 436 µM)		25 µg/mL (≈ 109 µM)	> 100 µg/mL			< 100 µg/mL	2	2	
C#CCOC(=O)N=Nc1cc(C)c(Cl)c2c1OC(C)CC2 (stereo not drawn) [Example 41]	1									1					
